Reference: patent US10322112B2, “Compound combinations for attenuation of bacterial virulence” (priority 2016, dated 2019)

Key:
[1] = target: T1, LasR (Pseudomonas aeruginosa, UniProt P25084); assay: E. coli reporter gene primary antagonism assay, LasR; type: cell-based; conditions: compounds at 100 mm against 2 nm OdDHL; E. coli beta-galactosidase reporter strain JLD271/pJN105L/pSC11; untreated culture = 100%; negative values indicate receptor agonism; error ±10%
T1 construct: expressed in transfected cells; host or cells: E. coli JLD271
Description: (§1) Percent agonism of a given non-native inducer in a given bacterium and QS system receptor is measured with resepct to the maximum level of agonism (activation) by the native ligand of that receptor in the given bacterium. Percent antagonism is measured in competitive assays. The QS system of interest is activated to 100% with added or endogenous native ligand and the % antagonism of the non-native inducer is assessed with respect to 100% activation by the native inducer. The native ligand which induces LasR is OdDHL, which induces RhlR is BHL and which induces PqsR is PQS. As described herein and in cited references, assays for assessment of % agonism or % atangonism may be performed in E. coli systems (heterologous) or in the bacterium of interest, e.g., Pseudomonas. Dependent upon the assay system employed native ligand may be endogenously present or it may be exogenously supplied to the assay system. […] In antagonism assays using the native strains with functional QS systems, e.g., those of P. aeruginosa, endogenous native ligand is made in the system, so no native ligand is added. In native strains having one or more non-functional QS systems (mutant strains), e.g., P. aeruginosa mutants with non-functional QS systems, native ligand is added at about 10-100× the EC50 of the native ligand. In the agonism assay, native ligand is added as a control. Details of the assays are provided herein in Example 9 and in references cited in Example 9.

[2] = target: T2, RhlR (Pseudomonas aeruginosa, UniProt P54292); assay: E. coli reporter gene antagonism assay, RhlR; type: cell-based; conditions: compounds at 100 mm in the presence of 10 mm BHL; untreated culture = 100%; error ±10%; selected data reproduced from Welsh et al. 2015
T2 construct: expressed in transfected cells; host or cells: E. coli JLD271
Description: as §1

[3] = target: T3, QscR (Pseudomonas aeruginosa, UniProt G3XD77); type: cell-based; parameters: expressed in transfected cells; host or cells: E. coli JLD271; conditions: compounds at 100 mm against 15 nm OdDHL; E. coli reporter strain JLD271/pJN105Q/pSC11-Q; untreated culture = 100%; error ±10%
Excerpt: (§2) Construction of pSC11-Q: A 348 bp fragment spanning the upstream region of PA1897 (¢304 to +43 relative to the PA1897 translationalstart codon) was amplified from plasmid pJL101*by using primers 5′-GAATAT GGATCC TCTCTC CGCAGA TACCTG-3′ (BamHI site underlined) SEQ ID NO:5 and 5′-GCTATT GAATTC TGAAGA TGAATA GCGCCAC-3′ (EcoRI site underlined) SEQ ID NO:6. The PCR-generated fragment was digested with EcoRI and BamHI and subsequently ligated into EcoRI/BamHI-digested pPROBE-KT to generate pPROBE-KQ2. […] CGCC-3′ (BamHI site underlined) SEQ ID NO:8. The PCR-generated fragment was digested with SalI and BamHI and subsequently ligated into SalI/BamHI-digested pSC11 to generate pSC11-Q.
(§3) E. coli reporter gene assays: Primary assays for RhlR, LasR, and QscR activity in E. coli JLD271 reporter (beta-galactosidase) strains were performed as reported by Welsh et al. 2015, with the following modifications:
(§4) For all primary and dose-response antagonism assays, the concentration of native ligand utilized was approximately equal to its EC50 value in each bacterial reporter strain. For RhlR, LasR, and QscR primary antagonism assays, synthetic ligand (100 mm) was screened against BHL (10 mm), OdDHL (2 nm), and OdDHL (15 nm), respectively. For RhlR, LasR, and QscR primary agonism assays, synthetic compound (100 mm) was screened alongside and compared to the natural ligand (900 mm BHL or 100 mm OdDHL) for the receptor. As part of the beta-galactosidase assay protocol, plates to which CPRG substrate had been added were incubated at either 25° C. (LasR assay) or 30° C. (RhlR and QscR assays) until positive control wells developed a deep red color (10 min for LasR, 30 min for RhlR, and 60 min for QscR). Dose-response reporter gene assays were performed according to these protocols by using varying concentrations of compound.

[4] = target: T1, LasR; assay: E. coli reporter gene primary agonism assay, LasR; type: cell-based; conditions: compounds at 100 mm; E. coli reporter strain JLD271/pJN105L/pSC11; 100 mm OdDHL = 100%; error ±10%
Description: as §1

[5] = target: T2, RhlR; assay: E. coli reporter gene primary agonism assay, RhlR; type: cell-based; conditions: compounds at 100 mm; 900 mm BHL = 100%; error ±10%; selected data reproduced from Welsh et al., 2015
Description: as §1

[6] = target: T3, QscR; conditions: compounds at 100 mm; E. coli reporter strain JLD271/pJN105Q/pSC11-Q; 100 mm OdDHL = 100%; error ±10%
Excerpt: as §2, §3, §4

T1 sequence (P25084 whole entry): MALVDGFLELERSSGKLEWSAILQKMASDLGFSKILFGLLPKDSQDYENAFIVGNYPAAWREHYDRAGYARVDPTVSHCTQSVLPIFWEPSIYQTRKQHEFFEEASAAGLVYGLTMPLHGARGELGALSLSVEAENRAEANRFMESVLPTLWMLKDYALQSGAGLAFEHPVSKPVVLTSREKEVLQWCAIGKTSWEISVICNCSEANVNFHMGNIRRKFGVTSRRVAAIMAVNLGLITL
T3 sequence (G3XD77 entry or part of it): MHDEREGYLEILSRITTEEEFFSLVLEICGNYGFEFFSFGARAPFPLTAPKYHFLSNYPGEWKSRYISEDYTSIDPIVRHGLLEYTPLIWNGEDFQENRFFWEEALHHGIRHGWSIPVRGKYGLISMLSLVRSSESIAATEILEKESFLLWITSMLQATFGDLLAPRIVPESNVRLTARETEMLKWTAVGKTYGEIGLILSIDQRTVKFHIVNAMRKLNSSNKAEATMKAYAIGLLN
T2 sequence (P54292 whole entry): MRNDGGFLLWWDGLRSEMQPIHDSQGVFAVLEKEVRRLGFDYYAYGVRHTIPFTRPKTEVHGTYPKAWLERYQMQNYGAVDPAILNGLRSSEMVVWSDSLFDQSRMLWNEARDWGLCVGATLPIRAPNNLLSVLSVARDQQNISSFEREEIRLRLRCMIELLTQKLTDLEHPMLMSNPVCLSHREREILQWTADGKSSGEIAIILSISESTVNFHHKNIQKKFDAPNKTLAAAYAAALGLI

Cc1ccc(OCC(=O)N[C@H]2CCOC2=O)cc1 [E15]
Inhibition [%] LasR [1]: 84%
Inhibition [%] RhlR [2]: 75%
Inhibition [%] QsCR [3]: 33%

O=C(Cc1c(F)c(F)c(F)c(F)c1F)N[C@H]1CCOC1=O [C16]
Inhibition [%] LasR [1]: 76%
Inhibition [%] RhlR [2]: 66%
Inhibition [%] QsCR [3]: 74%

Cc1cccc(CC(=O)N[C@H]2CCOC2=O)c1 [E1]
Activation [%] LasR [4]: 21%
Activation [%] RhlR [5]: 69%
Activation [%] QscR [6]: 29%

O=C(Cc1ccc([N+](=O)[O-])cc1)N[C@H]1CCOC1=O [C13]
Inhibition [%] LasR [1]: 91%
Inhibition [%] RhlR [2]: 60%
Inhibition [%] QsCR [3]: 14%

CSc1cccc(CC(=O)N[C@H]2CCOC2=O)c1 [E7]
Activation [%] LasR [4]: 32%
Activation [%] RhlR [5]: 70%
Activation [%] QscR [6]: 24%

O=C(Cc1ccc(SC(F)(F)F)cc1)N[C@H]1CCOC1=O [E8]
Inhibition [%] LasR [1]: 23%
Inhibition [%] RhlR [2]: 65%
Inhibition [%] QsCR [3]: 40%

O=C(Cc1ccc(C(F)(F)F)cc1)N[C@H]1CCOC1=O [C20]
Inhibition [%] LasR [1]: 93%
Inhibition [%] RhlR [2]: 86%
Inhibition [%] QsCR [3]: 26%

O=C(Cc1ccc(I)cc1)N[C@H]1CCOC1=O [C10]
Inhibition [%] LasR [1]: 58%
Inhibition [%] RhlR [2]: 84%
Inhibition [%] QsCR [3]: −79%

O=C(CC1CCCC1)N[C@H]1CCOC1=O [B12]
Activation [%] LasR [4]: −10%
Activation [%] RhlR [5]: 79%
Activation [%] QscR [6]: 12%

O=C(Cc1cccc(F)c1)N[C@H]1CCOC1=O [C3]
Activation [%] LasR [4]: −2%
Activation [%] RhlR [5]: 79%
Activation [%] QscR [6]: 13%

CSc1ccc(CC(=O)N[C@H]2CCOC2=O)cc1 [E6]
Inhibition [%] LasR [1]: 85%
Inhibition [%] RhlR [2]: 78%
Inhibition [%] QsCR [3]: 24%

O=C(COc1ccc(C(F)(F)F)cc1)N[C@H]1CCOC1=O [E23]
Inhibition [%] LasR [1]: −49%
Inhibition [%] RhlR [2]: 64%
Inhibition [%] QsCR [3]: 22%

C=CCCC(=O)N[C@H]1CCOC1=O [D8]
Activation [%] LasR [4]: 26%
Activation [%] RhlR [5]: 81%
Activation [%] QscR [6]: 13%

O=C(Cc1ccccc1I)N[C@H]1CCOC1=O [C12]
Activation [%] LasR [4]: −4%
Activation [%] RhlR [5]: 70%
Activation [%] QscR [6]: 5%

COc1cccc(CC(=O)N[C@H]2CCOC2=O)c1 [E2]
Activation [%] LasR [4]: 23%
Activation [%] RhlR [5]: 86%
Activation [%] QscR [6]: 26%

O=C(CCc1cccc(Br)c1)N[C@H]1CCOC1=O [E31]
Activation [%] LasR [4]: 71%
Activation [%] RhlR [5]: 65%
Activation [%] QscR [6]: 58%

O=C(Cc1cccc(Cl)c1)N[C@H]1CCOC1=O [C6]
Activation [%] LasR [4]: 30%
Activation [%] RhlR [5]: 82%
Activation [%] QscR [6]: 30%

COc1ccc(OCC(=O)N[C@H]2CCOC2=O)cc1 [E17]
Inhibition [%] LasR [1]: 83%
Inhibition [%] RhlR [2]: 66%
Inhibition [%] QsCR [3]: 36%

O=C(Cc1ccc(Cl)c(Cl)c1)N[C@H]1CCOC1=O [E11]
Inhibition [%] LasR [1]: 28%
Inhibition [%] RhlR [2]: 62%
Inhibition [%] QsCR [3]: 15%

O=C(CCc1ccc(Cl)cc1)N[C@H]1CCOC1=O [E30]
Activation [%] LasR [4]: 53%
Activation [%] RhlR [5]: 64%
Activation [%] QscR [6]: 79%

O=C(Cc1ccc2ccccc2c1)N[C@H]1CCOC1=O [E12]
Inhibition [%] LasR [1]: 81%
Inhibition [%] RhlR [2]: 77%
Inhibition [%] QsCR [3]: 60%

O=C(Cc1ccc(F)cc1)N[C@H]1CCOC1=O [C2]
Activation [%] LasR [4]: 12%
Activation [%] RhlR [5]: 71%
Activation [%] QscR [6]: 10%

O=C(CCc1ccc([N+](=O)[O-])cc1)N[C@H]1CCOC1=O [E37]
Activation [%] LasR [4]: 22%
Activation [%] RhlR [5]: 69%
Activation [%] QscR [6]: 65%

O=C(CCCC1CCCCC1)N[C@H]1CCOC1=O [S6]
Inhibition [%] LasR [1]: 56%
Inhibition [%] RhlR [2]: 69%
Inhibition [%] QsCR [3]: 34%

O=C(Cc1ccccc1F)N[C@H]1CCOC1=O [C4]
Activation [%] LasR [4]: −4%
Activation [%] RhlR [5]: 66%
Activation [%] QscR [6]: 0%

O=C(Cc1ccc(Br)cc1)N[C@@H]1CCOC1=O [B4]
Inhibition [%] LasR [1]: 15%
Inhibition [%] RhlR [2]: 66%
Inhibition [%] QsCR [3]: 37%

O=C(Cc1cccc(I)c1)N[C@H]1CCOC1=O [C11]
Activation [%] LasR [4]: 56%
Activation [%] RhlR [5]: 63%
Activation [%] QscR [6]: 34%

O=C(Cc1cccc(Br)c1)N[C@H]1CCOC1=O [C8]
Activation [%] LasR [4]: 44%
Activation [%] RhlR [5]: 80%
Activation [%] QscR [6]: 33%

Cc1ccc(CC(=O)N[C@H]2CCOC2=O)cc1 [C19]
Inhibition [%] LasR [1]: 81%
Inhibition [%] RhlR [2]: 87%
Inhibition [%] QsCR [3]: 64%

O=C(Cc1ccccc1)N[C@H]1CCOC1=O [C1]
Activation [%] LasR [4]: −3%
Activation [%] RhlR [5]: 84%
Activation [%] QscR [6]: 3%

CSc1ccc(CCC(=O)N[C@H]2CCOC2=O)cc1 [E34]
Inhibition [%] LasR [1]: −52%
Inhibition [%] RhlR [2]: 62%
Inhibition [%] QsCR [3]: −190%

O=C(COc1ccc(Br)cc1)N[C@H]1CCOC1=O [E21]
Inhibition [%] LasR [1]: 31%
Inhibition [%] RhlR [2]: 66%
Inhibition [%] QsCR [3]: 20%

O=C(COc1ccc(OC(F)(F)F)cc1)N[C@H]1CCOC1=O [D15]
Inhibition [%] LasR [1]: −80%
Inhibition [%] RhlR [2]: 61%
Inhibition [%] QsCR [3]: 4%

N#Cc1cccc(CC(=O)N[C@H]2CCOC2=O)c1 [E5]
Activation [%] LasR [4]: 62%
Activation [%] RhlR [5]: 67%
Activation [%] QscR [6]: 34%
